The values that follow come from ChEMBL document CHEMBL1149018, “Cytotoxic and antitumor activity of vismiones isolated from vismieae” (J Nat Prod, 1986).

Converted amounts (≈) assume the structure as drawn.

A short description of data set [1]: Cytotoxicity against human 9KB cells after 3 days. Particulars: 72 h, read-out: ID50 (the source's name). The data set is classed as functional.
The subject of data set [2] is P388. Nature of the data set: Cytotoxicity against mouse doxorubicin-sensitive P388 cells after 3 days. The format is functional. Particulars: P388, 72 h, read-out: ID50 (the source's name).
Data set [3] relates to P388. Nature of the data set: Cytotoxicity against mouse doxorubicin-resistant P388 cells after 3 days. The format is functional. As to conditions: P388, 72 h, read-out: ID50 (the source's name).
The test system of data set [4] is B16. Nature of the data set: Antitumor activity in mouse B16 cells xenografted in BDF1 mouse at 2.50 mg/kg, ip administered from day 1 to 5 after transplantation. The format is functional. Particulars: dose 2.5 mg/kg; route intraperitoneal.
The test system of data set [5] is Mus musculus. Nature of the data set: Toxicity in mouse B16 cells xenografted in BDF1 mouse at 10 mg/kg, ip administered from day 1 to 5 after transplantation. The format is organism-based. Set-up: dose 10 mg/kg, route intraperitoneal. Particulars: in vivo.
For data set [6], the system named is M5076. Nature of the data set: Antitumor activity in mouse M5076 cells xenografted in BDF1 mouse at 0.63 mg/kg, ip administered from day 1 to 9 after transplantation. The format is functional. Particulars: route intraperitoneal.
The subject of data set [7] is M5076. Nature of the data set: Antitumor activity in mouse M5076 cells xenografted in BDF1 mouse at 2.50 mg/kg, ip administered from day 1 to 9 after transplantation. The format is functional. As to conditions: dose 2.5 mg/kg; route intraperitoneal.
Data set [8] has as its system Mus musculus. Nature of the data set: Toxicity in mouse M5076 cells xenografted in BDF1 mouse at 10 mg/kg, ip administered from day 1 to 9 after transplantation. The format is organism-based. The arrangement: dose 10 mg/kg, route intraperitoneal. Particulars: in vivo.
In data set [9] the test system is M5076. Nature of the data set: Antitumor activity in mouse M5076 cells xenografted in BDF1 mouse at 5 mg/kg, ip administered from day 1 to 9 after transplantation. As to conditions: route intraperitoneal. The data set is classed as functional.
In data set [10] the test system is B16. Nature of the data set: Antitumor activity in mouse B16 cells xenografted in BDF1 mouse at 5 mg/kg, ip administered from day 1 to 5 after transplantation. The format is functional. As to conditions: route intraperitoneal.
Data set [11] relates to M5076. Nature of the data set: Antitumor activity in mouse M5076 cells xenografted in BDF1 mouse at 0.31 mg/kg, ip administered from day 1 to 9 after transplantation. The data set is classed as functional. As to conditions: route intraperitoneal.
The subject of data set [12] is M5076. Nature of the data set: Antitumor activity in mouse M5076 cells xenografted in BDF1 mouse at 1.25 mg/kg, ip administered from day 1 to 9 after transplantation. The format is functional. As to conditions: route intraperitoneal.
The test system of data set [13] is B16. Nature of the data set: Antitumor activity in mouse B16 cells xenografted in BDF1 mouse at 0.62 mg/kg, ip administered from day 1 to 5 after transplantation. The data set is classed as functional. As to conditions: route intraperitoneal.
The test system of data set [14] is B16. Nature of the data set: Antitumor activity in mouse B16 cells xenografted in BDF1 mouse at 1.25 mg/kg, ip administered from day 1 to 5 after transplantation. The data set is classed as functional. As to conditions: route intraperitoneal.

As for `CC(=O)OC1(C)CC(=O)c2c(cc3cc(O)c(CC=C(C)C)c(O)c3c2O)C1` (stereo unspecified) [VISMIONE C], the IC50 in data set [1] turned out to be 2.1 µg/mL (≈ 5.46 µM).

Regarding `CC(=O)OC1(C)CC(=O)c2c(cc3cc(O)c(C/C=C(\C)CCC=C(C)C)c(O)c3c2O)C1` (stereo unspecified) [ACETYLVISMIONE F], the IC50 in the data set on P388 [2] worked out at 2.7 µg/mL (≈ 5.97 µM); with P388 [3], 3 µg/mL (≈ 6.63 µM); in data set [1], 1 µg/mL (≈ 2.21 µM).

Regarding `COc1cc2cc3c(c(O)c2c(O)c1/C=C/C(C)C)C(=O)CC(C)(OC(C)=O)C3` (stereo unspecified) [VISMIONE A], the T/C in the data set on B16 [4] is listed as 115%; with Mus musculus [5], “Toxic”; with M5076 [6], 115%; with M5076 [7] it was 140%; with Mus musculus [8] it was “Toxic”; with M5076 [9] it was 145%. The T/C in the data set on B16 [10] is reported as 148%; in the data set on M5076 [11], 111%; in the data set with M5076 [12] it was 119%; in the data set on B16 [13], 98%; with B16 [14] it was 112%. Further, the IC50 in the data set with P388 [2] worked out at 0.45 µg/mL (≈ 1.13 µM); in the data set on P388 [3] it was 1.1 µg/mL (≈ 2.76 µM); in [1], 0.25 µg/mL (≈ 0.627 µM).

In the case of `CC(=O)OC1(C)CC(=O)c2c(c(C/C=C(\C)CCC=C(C)C)c3cc(O)cc(O)c3c2O)C1` (stereo unspecified) [VISMIONE G], the values for the IC50 (in the data set with P388 [2]; in the data set with P388 [3]; in data set [1]) were 30 µg/mL (≈ 66.3 µM), 30 µg/mL (≈ 66.3 µM) and 3.2 µg/mL (≈ 7.07 µM), respectively.

With `COc1cc2cc3c(c(O)c2c2c1C=CC(C)(C)O2)C(=O)CC(C)(O)C3` (stereo unspecified) [VISMIONE B], the IC50 in the data set with P388 [2] amounted to 10 µg/mL (≈ 28.2 µM); in the data set with P388 [3], 3 µg/mL (≈ 8.46 µM); in [1] it was 10 µg/mL (≈ 28.2 µM).

For the compound `CC(=O)OC1(C)CC(=O)c2c(cc3cc(OC/C=C(\C)CCC=C(C)C)cc(O)c3c2O)C1` (stereo unspecified) [ACETYLVISMIONE D], the IC50 with P388 [2] stood at 1.8 µg/mL (≈ 3.98 µM); in [1], 5 µg/mL (≈ 11 µM).

Consider `COc1cc2cc3c(c(O)c2c(O)c1/C=C/C(C)C)C(=O)CC(C)(O)C3` (stereo unspecified) [DEACETYLVISMIONE A], for which the results for the IC50 (in the data set with P388 [2]; in the data set on P388 [3]; in data set [1]) were 0.4 µg/mL (≈ 1.12 µM), 0.3 µg/mL (≈ 0.842 µM) and 0.7 µg/mL (≈ 1.96 µM), respectively.

Consider `COc1cc2cc3c(c(O)c2c2c1C=CC(C)(C)O2)C(=O)CC(C)(OC(C)=O)C3` (stereo unspecified) [ACETYLVISMIONE B], for which the IC50 with P388 [2] is 5 µg/mL (≈ 12.6 µM); in the data set on P388 [3], 2 µg/mL (≈ 5.04 µM); in data set [1] it was 42 µg/mL (≈ 106 µM).

Consider `COc1cccc2c1C(=O)c1c(O)c3c(c(O)c1C2=O)C[C@@](O)(C(=O)CO)C[C@@H]3O[C@H]1C[C@H](N)[C@H](O)[C@H](C)O1` [DOXORUBICIN], for which the figures for the IC50 (in the data set on P388 [2]; with P388 [3]; in data set [1]) were 0.0055 µg/mL (≈ 0.0101 µM), 0.5 µg/mL (≈ 0.92 µM) and 0.2 µg/mL (≈ 0.368 µM), respectively.

Regarding `CC(C)=CCC/C(C)=C/Cc1c(O)cc2cc3c(c(O)c2c1O)C(=O)CC(C)(O)C3` (stereo unspecified) [VISMIONE F], the IC50 with P388 [2] was 2 µg/mL (≈ 4.87 µM); with P388 [3], 13.5 µg/mL (≈ 32.9 µM); in [1] it was 2.8 µg/mL (≈ 6.82 µM).

Take `CC(C)=CCC/C(C)=C/COc1cc(O)c2c(O)c3c(cc2c1)CC(C)(O)CC3=O` (stereo unspecified) [VISMIONE D]: the values for the IC50 (with P388 [2]; in the data set on P388 [3]; in [1]) were 14 µg/mL (≈ 34.1 µM), 18 µg/mL (≈ 43.8 µM) and 14 µg/mL (≈ 34.1 µM), respectively.
